Reference: patent US11845803B2, “Combination therapies for treatment of BCMA-related cancers and autoimmune disorders” (Fred Hutchinson Cancer Center, priority 2017, dated 2023)

What was measured:
[1] = test system: myeloma cell lines (8226, U266B1, MM1.R, H929); assay: Surface BCMA expression on myeloma cell lines incubated with GSI, flow cytometry; type: cell-based, human
Protocol: (A) Cell surface BCMA was measured on four myeloma cell lines (8226, U266B1, MM1.R, H929) by flow cytometry with an anti-BCMA monoclonal antibody before, and 5 hours after (see diagrams), incubation of the myeloma cell lines with GSI RO4929097 in a range of concentrations from 0 μM (DMSO control) to 1.0 μM. (E) U266 myeloma cells were incubated for 1, 3, 5 and 24 hours in the presence of various concentrations of GSI RO429097 (0.01 μM, 0.1 μM and 1.0 μM) and evaluated for surface BCMA expression by flow cytometry. […] (F) Fold change of surface BCMA expression on cell lines (MM1R=triangle; U266=square; 8226=circle) cultured in 1 μM GSI over time. GSI was re-administered as a half media change every 2 days. Fold change in BCMA is defined as Treated (MFIBCMA-MFIiso)/Control (MFIBCMA-MFIiso). Data is representative of at least 2 independent experiments. To examine the effect of γ-secretase inhibition on BCMA levels on myeloma cells, γ-secretase inhibitor (GSI) RO4929097 was used. […] To examine the effect of GSI on surface BCMA expression kinetics, U266 myeloma cells were incubated for 1, 3, 5 and 24 hours in the presence of various concentrations of GSI RO429097 (0.01 μM, 0.1 μM and 1.0 μM) and evaluated for cell surface BCMA expression by flow cytometry. […] The upregulation persisted over 7 days of culture in 1.0 μM GSI (FIG. 3F). Next, the effect of removing GSI from MM cell culture was examined. […] Finally, the viability of the tested MM cell lines was not affected by addition of 1.0 μM RO429097 to culture (FIG. 3L).

primary human T cells = assay: Primary human T cell viability in GSI, trypan blue dye exclusion; type: cell-based; settings: 0.01 μM to 100 μM; 24 hours
Protocol: (B) Primary human T cells were cultured in GSI RO4929097 at concentrations ranging from 0.01 μM to 100 μM and viability was measured by trypan blue dye exclusion after 24 hours. There was no effect of GSI, at any concentration, on T cell viability.

CC(C)(C(=O)NCC(F)(F)C(F)(F)F)C(=O)N[C@@H]1C(=O)Nc2ccccc2-c2ccccc21 [RO4929097]
persistence of surface BCMA upregulation in culture ([1]; 1.0 μM GSI, GSI re-administered every 2 days): ≥ 7 days
surface BCMA on myeloma cell lines ([1]; GSI 0.001 μM to 1.0 μM): rapidly upregulated
time of peak increase in surface BCMA expression ([1]; U266, 0.01-1.0 μM GSI): 5 h
cell surface BCMA expression on U266 cells ([1]; U266, 1, 3, 5 and 24 hours, 0.01, 0.1 and 1.0 μM): increased in a dose-dependent manner
surface BCMA levels following removal of GSI ([1]; after removal of 1.0 μM GSI): decreased
T cell viability (primary human T cells): no effect
